Results as given in PMC9036655 (RSC Advances, 2021).
Values after ≈ are worked out from the molar mass of the structure shown.

What was measured:
Test in all cases: Antibacterial spectrum test, agar double dilution MIC
Type in all cases: cell-based
[1] = test system: Escherichia coli Esbls^−16-23
[2] = test system: Pseudomonas aeruginosa 17-2; conditions: 172
[3] = test system: Klebsiella pneumoniae Esbls^−17-11
[4] = test system: Klebsiella pneumoniae Esbls^−17-12
[5] = test system: Escherichia coli Esbls^−16-24
[6] = test system: Escherichia coli ATCC25922

- MIC [1]: 16 µg/mL (≈ 44.3 µM)
- MIC [2]: 16 µg/mL (≈ 44.3 µM)
- MIC [3]: 0.03 µg/mL (≈ 0.083 µM)
- MIC [4]: < 0.008 µg/mL
- MIC [5]: < 0.008 µg/mL
- MIC [6]: < 0.008 µg/mL
SMILES: C[C@H]1COc2c(N3CCN(C)CC3)c(F)cc3c(=O)c(C(=O)O)cn1c23 [Levofloxacin tablets, Levofloxacin]
